Experimental data taken from the NIST ThermoML archive (doi:10.1016/j.jct.2015.03.023).
Values joined by “and” are separate entries in the source; they are usually repeats but may differ in a detail not shown here. Identical values can stand only once.

Assays:
[1] = Liquid; for speed of sound / mass density: 101.33 kPa; for speed of sound: Sing-around technique in a fixed-path interferometer; for mass density: Vibrating tube method; for vapor or sublimation pressure: Ebulliometric method (Recirculating still)
[2] = refractive index (Na D-line) (dimensionless); conditions: 101.33 kPa, Liquid, Standard Abbe refractometry
[3] = refractive index (Na D-line) (dimensionless); xn = mol fraction of the nth substance listed; conditions: 101.22 kPa, Liquid, Standard Abbe refractometry

CCCCn1cc[n+](C)c1.[I-] [1-butyl-3-methylimidazolium iodide]
Conditions	mass density, 293.15 K [kg/m3]	mass density, 298.15 K [kg/m3]	mass density, 308.15 K [kg/m3]	refractive index, 293.15 K	refractive index, 298.15 K	refractive index, 308.15 K	speed of sound, 293.15 K [m/s]	speed of sound, 298.15 K [m/s]	speed of sound, 308.15 K [m/s]
[1]	1483.5	1479.6	1471.7	–	–	–	1508.1	1497.5	1473.3
[2]	–	–	–	1.5825	1.581	1.5781	–	–	–

CCCCn1cc[n+](C)c1.[I-] [1-butyl-3-methylimidazolium iodide] + CCCCO
refractive index, [3]
Conditions	x1 = 0.108	x1 = 0.171	x1 = 0.311	x1 = 0.381	x1 = 0.51	x1 = 0.574	x1 = 0.623	x1 = 0.802	x1 = 0.85	x1 = 1
293.15 K	–	–	1.4864	1.5007	1.5237	1.5339	1.541	1.5634	1.5686	1.5825
298.15 K	1.4332	1.4508	1.4848	1.4991	1.5221	1.5322	1.5393	1.5618	1.567	1.581
308.15 K	1.4294	1.4472	1.4815	1.4958	1.5189	1.5289	1.5361	1.5587	1.5639	1.5781

CCCCO [butan-1-ol]
Conditions	mass density, [1] [kg/m3]	refractive index, [2]	speed of sound, [1] [m/s]	vapor or sublimation pressure, [1] [kPa]
293.15 K	809.8	1.3992 and 1.3993	1256.3	–
298.15 K	805.9	1.3973	1239.5	–
308.15 K	798.2	1.3932	1205.9	–
353.15 K	–	–	–	21.19
363.15 K	–	–	–	33.8
373.15 K	–	–	–	51.73

CCCCO [butan-1-ol] + CCCCn1cc[n+](C)c1.[I-]
[3], x2 = 0
Conditions	refractive index
293.15 K	1.3992
298.15 K	1.3973
308.15 K	1.3932
